From US20240391954A1, “MC4R AGONIST PEPTIDES” (The Regents of the University of Michigan, priority 2021, published 2024)
pEC50: −log10 of the molar value. Where two headings read alike, the source gives them in different places. Positions of bridges follow the written chain, without caps; N, C: chain ends. Non-standard residues stand in square brackets, D forms with d. Residues, ends and D or L forms follow the SMILES beside them. dPhe(4-Br) = N[C@H](Cc1ccc(Br)cc1)C(=O)O; d2Nal = N[C@H](Cc1ccc2ccccc2c1)C(=O)O; d(αMeF) = C[C@@](N)(Cc1ccccc1)C(=O)O; d(hPhe) = N[C@H](CCc1ccccc1)C(=O)O; NMeR = CN[C@@H](CCCNC(=N)N)C(=O)O; dNMeF = CN[C@H](Cc1ccccc1)C(=O)O; Nle = CCCC[C@H](N)C(=O)O

What was measured:
[1] = biological target: T1, human MC4R (Homo sapiens, UniProt P32245); experiment: split-luciferase cAMP sensor assay, agonist mode (measurement window 1), hMC4R; format: cell-based; settings: for Emax: read-out: MC4R cAMP % max activation; for pEC50: read-out: MC4R cAMP EC50
T1 construct: host or cells: HEK-293 cells stably expressing the GScAMP22F split-luciferase cAMP sensor and hMC4R, G418 selection
T1 sequence (P32245 whole entry): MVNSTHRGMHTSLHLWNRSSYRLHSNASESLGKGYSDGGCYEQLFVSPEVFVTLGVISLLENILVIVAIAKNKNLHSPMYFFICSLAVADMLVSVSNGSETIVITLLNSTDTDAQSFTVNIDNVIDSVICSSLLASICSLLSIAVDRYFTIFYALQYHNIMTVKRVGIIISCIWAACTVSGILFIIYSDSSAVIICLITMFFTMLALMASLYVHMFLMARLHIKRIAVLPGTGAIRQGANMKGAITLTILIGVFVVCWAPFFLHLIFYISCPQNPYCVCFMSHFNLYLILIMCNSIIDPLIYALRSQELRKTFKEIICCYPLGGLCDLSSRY
Description: (§1) The stable cell lines were grown and maintained in selection media consisting of Dulbecco's modified Eagle media (DMEM) with 4.5 g/l D-glucose, and 4 mM L-glutamine (Thermo Fisher Scientific, Waltham, MA), supplemented with 10% fetal bovine serum, 100 units/ml penicillin, 100 μg/ml streptomycin, 2.5 μg/ml amphotericin B, 200 μg/ml hygromycin B (for positive selection of the GScAMP22f luciferase reporter), and Geneticin™ (G418) 700 μg/ml (for MC3R or MC4R selection). Actual serum concentration during the assay is estimated to be about 1%. Cell line identity is routinely verified by qPCR and MC3R-and MC4R-specific oligonucleotides.
(§2) The assay for the determination of the cAMP response in live cells was described previously. […] Cells were seeded at a density of 20,000 cells per well using 384-well poly-D lysine-coated, clear bottom, and black-wall assay plates (Corning Inc. Corning, NJ). Cells were allowed to attach to the plates for 18 to 24 h after which growth media was removed and 20 μl of 4% D-luciferin (Promega) in CO2 independent, serum-free medium (Thermo Fisher Scientific) was added to each well. […] Intracellular cAMP levels were measured using an FDSS 7000EX Functional Drug Screening System (Hamamatsu Photonics, Hamamatsu, Japan) in the Center for Chemical Genomics at the Life Sciences Institute. This instrument allowed the in-line addition of test-peptides and receptor agonists while simultaneously acquiring the luminescence signal from live cells. […] A submaximal forskolin (20 μM) concentration was also included to serve as a normalization reference to account for cell number variations and differences in assay transducer efficiency between cell lines.
(§3) With this set up it was possible to evaluate the direct effect of the test-peptides on the MC3R and MC4R cell lines during measurement window 1, while the antagonist profile in the presence of EC90 α-MSH was determined on measurement window 2. […] EC50 or IC50 potency values were determined by non-linear regression by fitting the data to a sigmoid four-parameter variable slope model using the GraphPad Prism version 8.4 software package (San Diego CA).

[2] = biological target: T2, human MC3R (Homo sapiens, UniProt P41968); experiment: split-luciferase cAMP sensor assay, agonist mode (measurement window 1), hMC3R; format: cell-based; settings: agonist mode; for Emax: read-out: MC3R cAMP % max activation; for pEC50: read-out: MC3R cAMP EC50
T2 construct: expressed in transfected cells; host or cells: HEK-293 cells stably expressing the GScAMP22F split-luciferase cAMP sensor (parent reporter line from Promega); MC3R clone generated in-house, G418 selection
T2 sequence (P41968 whole entry): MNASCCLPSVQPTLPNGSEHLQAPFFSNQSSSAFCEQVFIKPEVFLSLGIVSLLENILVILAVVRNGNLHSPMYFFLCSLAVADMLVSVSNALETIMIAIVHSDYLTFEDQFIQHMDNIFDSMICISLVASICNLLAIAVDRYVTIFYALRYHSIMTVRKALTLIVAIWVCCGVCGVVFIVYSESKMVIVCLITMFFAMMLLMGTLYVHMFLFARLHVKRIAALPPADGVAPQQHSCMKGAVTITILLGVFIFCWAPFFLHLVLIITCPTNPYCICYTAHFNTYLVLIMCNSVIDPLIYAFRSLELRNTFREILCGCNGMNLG
Description: as §1, §2, §3

[3] = agonist mode, hMC4R stable cell line

| Compound | Emax [1, 3] [%] | Emax ([2]; hMC3R stable cell line) [%] | pEC50 ([2]; hMC3R stable cell line) | MC4R selectivity vs MC1R [1] | MC4R selectivity vs MC3R [1] | pEC50 [1, 3] | other results |
| --- | --- | --- | --- | --- | --- | --- | --- |
| CCCC[C@H](NC(=O)[C@H](CCCNC(=N)N)NC(C)=O)C(=O)N[C@H]1CSSC[C@@H](C(N)=O)NC(=O)[C@H](Cc2c[nH]c3ccccc23)NC(=O)[C@H](CCCNC(=N)N)NC(=O)[C@@H](Cc2ccc(Br)cc2)NC(=O)[C@H](Cc2c[nH]cn2)NC1=O [CTX-1229, Arg-Nle-cyclo(Cys-His-D-Phe(4-Br)-Arg-Trp-Cys)] (Ac-R[Nle]CH[dPhe(4-Br)]RWC-NH2; disulfide 3-8 (inferred)) | 31 | 16 | 8.46 | – | – | – | MC4R selectivity vs MC1R ([1]; cell printed in nM (see doubts)): 18 nM |
| CC(=O)N[C@@H](CCCNC(=N)N)C(=O)N[C@H]1CSSC[C@@H](C(N)=O)NC(=O)[C@@H](Cc2c[nH]c3ccccc23)NC(=O)[C@H](CCCNC(=N)N)N(C)C(=O)[C@@H](Cc2ccc(Br)cc2)NC(=O)[C@H](CCCNC(=N)N)NC(=O)[C@@H](C)NC1=O [CTX-1251, Arg-cyclo(Cys-D-Ala-Arg-D-Phe(4-Br)-NMe-Arg-D-Trp-Cys)] (Ac-RC[dA]R[dPhe(4-Br)][NMeR][dW]C-NH2; disulfide 2-8) | 31 | 30 | – | 0.11 | 3.73 | – | – |
| CC(=O)N[C@@H](CCCNC(=N)N)C(=O)N[C@H]1CSSC[C@@H](C(N)=O)NC(=O)[C@@H](Cc2c[nH]c3ccccc23)NC(=O)[C@H](CCCNC(=N)N)NC(=O)[C@@H](Cc2ccc(O)cc2)NC(=O)[C@H](CCCNC(=N)N)NC(=O)[C@@H](C)NC1=O [CTX-1237, Arg-cyclo(Cys-D-Ala-Arg-D-Tyr-Arg-D-Trp-Cys)] (Ac-RC[dA]R[dY]R[dW]C-NH2; disulfide 2-8 (inferred)) | 61 | 19 | – | 0.24 | 0.08 | – | – |
| CC(=O)N[C@@H](CCCNC(=N)N)C(=O)N[C@H]1CSSC[C@@H](C(N)=O)NC(=O)[C@@H](Cc2c[nH]c3ccccc23)NC(=O)[C@@H](CCCNC(=N)N)NC(=O)[C@@H](Cc2ccccc2)NC(=O)[C@H](CCCNC(=N)N)NC(=O)[C@@H](C)NC1=O [CTX-1283, Arg-cyclo(Cys-D-Ala-Arg-D-Phe-D-Arg-D-Trp-Cys)] (Ac-RC[dA]R[dF][dR][dW]C-NH2; disulfide 2-8) | 55 | 7.8 | – | 0.03 | 0.12 | – | – |
| CC(=O)N[C@@H](CCCNC(=N)N)C(=O)N[C@H]1CSSC[C@@H](C(N)=O)NC(=O)[C@@H](Cc2c[nH]c3ccccc23)NC(=O)[C@H](CCCNC(=N)N)NC(=O)[C@@H](CCc2ccccc2)NC(=O)[C@H](CCCNC(=N)N)NC(=O)[C@@H](C)NC1=O [CTX-1277, Arg-cyclo(Cys-D-Ala-Arg-D-Hph-Arg-D-Trp-Cys)] (Ac-RC[dA]R[d(hPhe)]R[dW]C-NH2; disulfide 2-8 (inferred)) | 29 | 5.2 | – | 0.05 | 0.1 | – | – |
| CCCC[C@H](NC(=O)[C@H](CCCNC(=N)N)NC(C)=O)C(=O)N[C@H]1CSSC[C@@H](C(N)=O)NC(=O)[C@H](Cc2c[nH]c3ccccc23)NC(=O)[C@H](CCCNC(=N)N)NC(=O)[C@@H](Cc2ccc(Br)cc2)NC(=O)[C@H](CCCNC(=N)N)NC1=O [CTX-1230, Arg-Nle-cyclo(Cys-Arg-D-Phe(4-Br)-Arg-Trp-Cys)] (Ac-R[Nle]CR[dPhe(4-Br)]RWC-NH2; disulfide 3-8) | – | – | 8.41 | 0.18 | 1.95 | 8.85 | MC4R cAMP % max activation [1, 3]: (27%); MC3R cAMP % max activation ([2]; hMC3R stable cell line): (23%) |
| CC(=O)N[C@@H](CCCNC(=N)N)C(=O)N[C@H]1CSSC[C@@H](C(=O)N[C@@H](CCCCN)C(N)=O)NC(=O)[C@@H](Cc2c[nH]c3ccccc23)NC(=O)[C@H](CCCNC(=N)N)NC(=O)[C@@H](Cc2ccc(Br)cc2)NC(=O)[C@H](CCCNC(=N)N)NC(=O)[C@@H](C)NC1=O [CTX-1218, Arg-cyclo(Cys-D-Ala-Arg-D-Phe(4-Br)-Arg-D-Trp-Cys)-Lys] (Ac-RC[dA]R[dPhe(4-Br)]R[dW]CK-NH2; disulfide 2-8) | 77 | 16 | – | 1 | 1.85 | – | pEC50 ([1]; agonist mode, hMC4R stable cell line, unit inferred): 8.66; pEC50 ([2]; hMC3R stable cell line, unit inferred): 8.40 |
| CC(=O)N[C@@H](CCCNC(=N)N)C(=O)N[C@H]1CSSC[C@@H](C(N)=O)NC(=O)[C@@H](Cc2c[nH]c3ccccc23)NC(=O)[C@H](CCCNC(=N)N)NC(=O)[C@@H](Cc2ccccc2)NC(=O)[C@H](Cc2c[nH]cn2)NC(=O)[C@@H](C)NC1=O [CTX-1262, Arg-cyclo(Cys-D-Ala-His-D-Phe-Arg-D-Trp-Cys)] | – | – | – | – | – | – | Emax ([1]; % maximal activation, agonist mode): 88%; Emax ([2]; % maximal activation): 65% |
| CC(=O)N[C@@H](CCCNC(=N)N)C(=O)N[C@H]1CSSC[C@@H](C(N)=O)NC(=O)[C@@H](Cc2c[nH]c3ccccc23)NC(=O)[C@H](CCCNC(=N)N)NC(=O)[C@@](C)(Cc2ccccc2)NC(=O)[C@H](CCCNC(=N)N)NC(=O)[C@@H](C)NC1=O [CTX-1279, Arg-cyclo(Cys-D-Ala-Arg-a-Me-D-Phe-Arg-D-Trp-Cys)] (Ac-RC[dA]R[d(αMeF)]R[dW]C-NH2; disulfide 2-8) | 79 | 20 | – | 0.83 | 0.61 | 7.14 | – |
| CC(=O)N[C@@H](CCCNC(=N)N)C(=O)N[C@H]1CSSC[C@@H](C(N)=O)NC(=O)[C@H](Cc2c[nH]c3ccccc23)NC(=O)[C@H](CCCNC(=N)N)NC(=O)[C@@H](Cc2ccc3ccccc3c2)NC(=O)[C@@H]2CCCN2C(=O)[C@@H](C)NC1=O [CTX-2203] (Ac-RC[dA]P[d2Nal]RWC-NH2; disulfide 2-8 (inferred)) | 1.4 | 1 | 7.54 | – | 2.45 | 7.92 | – |
| CC(=O)N[C@@H](CCCNC(=N)N)C(=O)N[C@H]1CSSC[C@@H](C(N)=O)NC(=O)[C@@H](Cc2c[nH]c3ccccc23)NC(=O)[C@H](CCCNC(=N)N)NC(=O)[C@@H](Cc2ccccc2)N(C)C(=O)[C@H](CCCNC(=N)N)NC(=O)[C@@H](C)NC1=O [CTX-1272, Arg-cyclo(Cys-D-Ala-Arg-NMe-D-Phe-Arg-D-Trp-Cys)] (Ac-RC[dA]R[dNMeF]R[dW]C-NH2; disulfide 2-8 (inferred)) | 5.3 | 0.9 | – | 0.21 | 0.9 | – | – |
| CC(=O)N[C@@H](CCCNC(=N)N)C(=O)N[C@H]1CSSC[C@@H](C(N)=O)NC(=O)[C@@H](Cc2ccc3ccccc3c2)NC(=O)[C@H](CCCNC(=N)N)NC(=O)[C@@H](Cc2ccc(Br)cc2)NC(=O)[C@H](CCCNC(=N)N)NC(=O)[C@@H](C)NC1=O [CTX-1254, Arg-cyclo(Cys-D-Ala-Arg-D-Phe(4-Br)-Arg-D-Nal(2′)-Cys)] (Ac-RC[dA]R[dPhe(4-Br)]R[d2Nal]C-NH2; disulfide 2-8) | 22 | 5.5 | – | 0.26 | 2.19 | – | – |
| CCCC[C@H](NC(=O)[C@H](CCCNC(=N)N)NC(C)=O)C(=O)N[C@H]1CSSC[C@@H](C(N)=O)NC(=O)[C@@H](Cc2c[nH]c3ccccc23)NC(=O)[C@H](CCCNC(=N)N)NC(=O)[C@@H](Cc2ccc(OC)cc2)NC(=O)[C@H](CCCNC(=N)N)NC1=O [CTX-1615, Arg-Nle-cyclo(Cys-Arg-D-Tyr(4-OMe)-Arg-D-Trp-Cys)] (Ac-R[Nle]CR[dY](Me)R[dW]C-NH2; disulfide 3-8) | 68 | 55 | 7.57 | 0.26 | 2.14 | 7.89 | – |
